According to paper PMC8792425 (Redox Biology, 2022):

Target: T1, citrate synthase (CS) (Homo sapiens, UniProt O75390)
T1 sequence (O75390 28-466): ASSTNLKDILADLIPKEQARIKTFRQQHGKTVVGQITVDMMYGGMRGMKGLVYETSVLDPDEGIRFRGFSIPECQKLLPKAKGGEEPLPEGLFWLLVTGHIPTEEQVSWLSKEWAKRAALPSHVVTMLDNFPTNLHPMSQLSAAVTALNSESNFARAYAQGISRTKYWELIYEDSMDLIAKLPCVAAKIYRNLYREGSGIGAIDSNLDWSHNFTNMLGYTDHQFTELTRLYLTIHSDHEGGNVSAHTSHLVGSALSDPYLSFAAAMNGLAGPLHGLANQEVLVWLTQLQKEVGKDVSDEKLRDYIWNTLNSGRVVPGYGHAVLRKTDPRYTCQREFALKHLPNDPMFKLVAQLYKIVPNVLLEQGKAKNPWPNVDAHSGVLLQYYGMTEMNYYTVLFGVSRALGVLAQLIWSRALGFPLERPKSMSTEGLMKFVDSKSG
Assay: DTNB-CoA absorbance at […] nm
Type: biochemical

| SMILES | DTNB-CoA absorbance at 412 nm (with oxaloacetate and DTNB) | DTNB-CoA absorbance at 412 nm (with acetyl CoA and DTNB) |
| --- | --- | --- |
| CC(=O)SCCNC(=O)CCNC(=O)[C@H](O)C(C)(C)COP(=O)(O)OP(=O)(O)OC[C@H]1O[C@@H](n2cnc3c(N)ncnc32)[C@H](O)[C@@H]1OP(=O)(O)O [acetyl CoA] | oxaloacetate, acetyl CoA, and DTNB were incubated with protein lysates |  |
| O=C(O)CC(=O)C(=O)O [oxaloacetate] |  | oxaloacetate, acetyl CoA, and DTNB were incubated with protein lysates |
